Laboratory results published in patent US20260325655A1, “DECREASING THE INTRINSICALLY DISORDERED PROTEIN ALPHA-SYNUCLEIN’S LEVELS BY TARGETING ITS STRUCTURED MRNA WITH A RIBONUCLEASE TARGETING CHIMERA” (University of Florida Research Foundation, Incorporated, priority 2023, published 2026).

Assays:
[1] = test system: seven proteins encoded by genes enriched by Syn-CLIP; experiment: Western blot validation of seven proteins encoded by transcripts enriched by Syn-CLIP; assay type: cell-based, human; conditions: 2 μM, 48 h; SH-SY5Y
Procedure: Western blotting. After 48 h, cells were gently washed with ice-cold 1× DPBS, and total protein was extracted with Mammalian Protein Extraction Reagent (M-PER, Thermo Scientific) per the manufacturer's protocol. After quantifying protein concentration by using BCA Protein Assay Kit (Pierce Biotechnology), ~30 μg of total protein for each sample was separated using a 10% SDS-polyacrylamide gel and transferred onto a PVDF membrane. The membrane was fixed with 0.4% paraformaldehyde (pH=7.0) for 30 min at room temperature^9 and then blocked with 5% (w/v) non-fat dry milk in 1× TBST (1× TBS containing 0.1% Tween-20) for 1 h at room temperature. […] After washing 10 min each with 1× TBST three times, immunocomplex signals of each protein were detected by using a SuperSignal West Pico Chemiluminescent Substrate (Pierce Biotechnology) according to the manufacturer's protocol. The memebrane was then stripped by using 1× Stripping Buffer (200 mM glycine, pH 2.2, 4 mM SDS, 1% (v/v) Tween 20) at room temperature for 15 min, followed by blocking with 5% (w/v) non-fat dry milk at room temperature for 1 h. β-actin was used to normalize the levels of all proteins, measured by incubating with a primary antibody for β-actin (1:5000, 3700S from Cell Signaling Technology) at 4° C. overnight. […]

SNCA mRNA = SNCA mRNA in iPSC-induced dopaminergic neurons; assay type: cell-based, human
Procedure: RNA extraction and reverse transcription-quantitative polymerase chain reaction (RT-qPCR). Total RNA was extracted from cells using a Quick-RNA MiniPrep Kit (Zymo Research) per the manufacturer's protocol including DNase treatment. For each sample, 200 ng of RNA was reverse transcribed into cDNA by using a qScript cDNA Synthesis Kit (QuantaBio) according to the manufacturer's instructions. To assess the relative mRNA levels, RT-qPCR was performed in triplicate using SYBR Green PCR mater mix (Applied Biosystems) with a Quant Studio 5 Real-Time PCR system. The relative levels of mRNA were calculated by using the ΔΔCt method as previously described.^8
Dopamine neuron induction. For dopamine neuronal induction,^15,16 the dual-SMAD inhibition method^17 was used for floor plate (FP)-based midbrain dopamine (DA) neuron induction with modifications. Prior to differentiation, Matrigel matrix (BD) was thawed at 4° C. overnight or on ice until it is dissolved. Matrigel coated 6-well plates were prepared according to manufacturer's instructions and incubated at 37° C. for at least 1 h before use. iPSCs were dissociated with Accutase (STEMCELL Technologies) and plated (3.5×10^5-4×10^5 cells per cm^2) into a new Matrigel coated plate and grown in mTeSR medium (STEMCELL Technologies) with StemBeads FGF2 (StemCultures) and ROCK inhibitor Y27632 (5 μM, Tocris). […]

Structure (SMILES)	effect on seven proteins by Western blot [1]	effect on SNCA mRNA levels in dopaminergic neurons (in words) (SNCA mRNA)	decrease of SNCA transcript levels in dopaminergic neurons (SNCA mRNA)
O=C(CSc1nnc(-c2ccncc2)n1-c1ccc(Br)cc1)Nc1ccc2cn[nH]c2c1 [Synucleozid-2.0]	did not affect these seven proteins	no effect	
CCOC(=O)C1=C(Nc2ccccc2)S/C(=C\c2ccc(OCCOCCOCCOCCNC(=O)CCCOc3ccc(-n4c(SCC(=O)Nc5ccc6cn[nH]c6c5)nnc4-c4ccncc4)cc3)c(O)c2)C1=O [Syn-RiboTAC]	did not affect these seven proteins		~ 50%
